In US20100113533A1, “Polymorph II of 4-[4-(Amino)-3- Fluorophenoxy]-N-Methylpyridine-2-Carboxamide” (BAYER SCHERING PHARMA AKTIENGESELLSCHAFT, priority 2006, published 2010):

Experiment: Solubility in water and in organic solvents
Format: physicochemical

solubility in organic solvents (organic solvents): high solubility | solubility in water (water): high solubility
SMILES: CNC(=O)c1cc(Oc2ccc(NC(=O)Nc3ccc(Cl)c(C(F)(F)F)c3)c(F)c2)ccn1 [polymorph II, 4-[4-({[4-chloro-3-(trifluoromethyl)phenyl]carbamoyl}amino)-3-fluorophenoxy]-N-methylpyridine-2-carboxamide]
